From ChEMBL document CHEMBL1926576, “Fragment based lead discovery of small molecule inhibitors for the EPHA4 receptor tyrosine kinase” (Eur J Med Chem, 2012)

Legend:
[1] = target: Mitogen-activated protein kinase 14 (Homo sapiens) (UniProt Q16539); assay: Inhibition of p38alpha MAPK assessed as residual activity at 10 uM using [33P-ATP] by radiometric filter binding assay
[2] = target: Mitogen-activated protein kinase 11 (Homo sapiens) (UniProt Q15759); assay: Inhibition of p38beta MAPK assessed as residual activity at 10 uM using [33P-ATP] by radiometric filter binding assay
[3] = target: Mitogen-activated protein kinase 12 (Homo sapiens) (UniProt P53778); assay: Inhibition of p38-gamma MAPK assessed as residual activity at 10 uM using [33P-ATP] by radiometric filter binding assay
[4] = target: Serine/threonine-protein kinase PAK 5 (Homo sapiens) (UniProt Q9P286); assay: Inhibition of PAK5 assessed as residual activity at 10 uM using [33P-ATP] by radiometric filter binding assay
[5] = target: Serine/threonine-protein kinase pim-1 (Homo sapiens) (UniProt P11309); assay: Inhibition of PIM1 assessed as residual activity at 10 uM using [33P-ATP] by radiometric filter binding assay
[6] = target: Serine/threonine-protein kinase pim-2 (Homo sapiens) (UniProt Q9P1W9); assay: Inhibition of PIM2 assessed as residual activity at 10 uM using [33P-ATP] by radiometric filter binding assay
[7] = target: Serine/threonine-protein kinase PLK1 (Homo sapiens) (UniProt P53350); assay: Inhibition of PLK1 assessed as residual activity at 10 uM using [33P-ATP] by radiometric filter binding assay
[8] = target: Serine/threonine-protein kinase N2 (Homo sapiens) (UniProt Q16513); assay: Inhibition of PRK2 assessed as residual activity at 10 uM using [33P-ATP] by radiometric filter binding assay
[9] = target: Rho-associated protein kinase 2 (Homo sapiens) (UniProt O75116); assay: Inhibition of ROCK2 assessed as residual activity at 10 uM using [33P-ATP] by radiometric filter binding assay
[10] = target: Ribosomal protein S6 kinase alpha-3 (Homo sapiens) (UniProt P51812); assay: Inhibition of RSK2 assessed as residual activity at 10 uM using [33P-ATP] by radiometric filter binding assay
[11] = target: Mitogen-activated protein kinase kinase kinase 7 (Homo sapiens) (UniProt O43318); assay: Inhibition of TAK1 assessed as residual activity at 10 uM using [33P-ATP] by radiometric filter binding assay
[12] = target: Angiopoietin-1 receptor (Homo sapiens) (UniProt Q02763); assay: Inhibition of TIE2 assessed as residual activity at 10 uM using [33P-ATP] by radiometric filter binding assay
[13] = target: Serine/threonine-protein kinase tousled-like 1 (Homo sapiens) (UniProt Q9UKI8); assay: Inhibition of TLK1 assessed as residual activity at 10 uM using [33P-ATP] by radiometric filter binding assay
[14] = target: High affinity nerve growth factor receptor (Homo sapiens) (UniProt P04629); assay: Inhibition of TrkA assessed as residual activity at 10 uM using [33P-ATP] by radiometric filter binding assay
[15] = target: Dual specificity protein kinase TTK (Homo sapiens) (UniProt P33981); assay: Inhibition of TTK assessed as residual activity at 10 uM using [33P-ATP] by radiometric filter binding assay
[16] = Inhibition of VEGFR assessed as residual activity at 10 uM using [33P-ATP] by radiometric filter binding assay
[17] = target: Tyrosine-protein kinase Yes (Homo sapiens) (UniProt P07947); assay: Inhibition of YES1 assessed as residual activity at 10 uM using [33P-ATP] by radiometric filter binding assay
[18] = Inhibition of AMPK assessed as residual activity at 10 uM using [33P-ATP] by radiometric filter binding assay
[19] = target: Tyrosine-protein kinase BTK (Homo sapiens) (UniProt Q06187); assay: Inhibition of BTK assessed as residual activity at 10 uM using [33P-ATP] by radiometric filter binding assay
[20] = target: Dual specificity protein kinase CLK2 (Homo sapiens) (UniProt P49760); assay: Inhibition of CLK2 assessed as residual activity at 10 uM using [33P-ATP] by radiometric filter binding assay
[21] = target: Fibroblast growth factor receptor 1 (Homo sapiens) (UniProt P11362); assay: Inhibition of FGF-R1 assessed as residual activity at 10 uM using [33P-ATP] by radiometric filter binding assay
[22] = target: Receptor tyrosine-protein kinase erbB-4 (Homo sapiens) (UniProt Q15303); assay: Inhibition of HER4 assessed as residual activity at 10 uM using [33P-ATP] by radiometric filter binding assay
[23] = target: Insulin receptor (Homo sapiens) (UniProt P06213); assay: Inhibition of IR assessed as residual activity at 10 uM using [33P-ATP] by radiometric filter binding assay
[24] = target: Interleukin-1 receptor-associated kinase 4 (Homo sapiens) (UniProt Q9NWZ3); assay: Inhibition of IRAK4 assessed as residual activity at 10 uM using [33P-ATP] by radiometric filter binding assay
[25] = target: Tyrosine-protein kinase JAK2 (Homo sapiens) (UniProt O60674); assay: Inhibition of JAK2 assessed as residual activity at 10 uM using [33P-ATP] by radiometric filter binding assay
[26] = target: Mitogen-activated protein kinase 10 (Homo sapiens) (UniProt P53779); assay: Inhibition of JNK3 assessed as residual activity at 10 uM using [33P-ATP] by radiometric filter binding assay
[27] = target: MAP kinase-activated protein kinase 2 (Homo sapiens) (UniProt P49137); assay: Inhibition of MAPKAP-K2 assessed as residual activity at 10 uM using [33P-ATP] by radiometric filter binding assay
[28] = target: Serine/threonine-protein kinase MARK2 (Homo sapiens) (UniProt Q7KZI7); assay: Inhibition of MARK2 assessed as residual activity at 10 uM using [33P-ATP] by radiometric filter binding assay
[29] = target: Misshapen-like kinase 1 (Homo sapiens) (UniProt Q8N4C8); assay: Inhibition of MINK1 assessed as residual activity at 10 uM using [33P-ATP] by radiometric filter binding assay
[30] = target: MAP kinase-interacting serine/threonine-protein kinase 1 (Homo sapiens) (UniProt Q9BUB5); assay: Inhibition of MNK1 assessed as residual activity at 10 uM using [33P-ATP] by radiometric filter binding assay
[31] = target: Serine/threonine-protein kinase 3 (Homo sapiens) (UniProt Q13188); assay: Inhibition of MST2 assessed as residual activity at 10 uM using [33P-ATP] by radiometric filter binding assay
[32] = target: Serine/threonine-protein kinase Nek2 (Homo sapiens) (UniProt P51955); assay: Inhibition of NEK2alpha assessed as residual activity at 10 uM using [33P-ATP] by radiometric filter binding assay
[33] = target: Serine/threonine-protein kinase 16 (Homo sapiens) (UniProt O75716); assay: Inhibition of MPSK1 assessed as residual activity at 10 uM using [33P-ATP] by radiometric filter binding assay

Sequence of MAP kinase-activated protein kinase 2 (Homo sapiens) (P49137 whole entry, looked up): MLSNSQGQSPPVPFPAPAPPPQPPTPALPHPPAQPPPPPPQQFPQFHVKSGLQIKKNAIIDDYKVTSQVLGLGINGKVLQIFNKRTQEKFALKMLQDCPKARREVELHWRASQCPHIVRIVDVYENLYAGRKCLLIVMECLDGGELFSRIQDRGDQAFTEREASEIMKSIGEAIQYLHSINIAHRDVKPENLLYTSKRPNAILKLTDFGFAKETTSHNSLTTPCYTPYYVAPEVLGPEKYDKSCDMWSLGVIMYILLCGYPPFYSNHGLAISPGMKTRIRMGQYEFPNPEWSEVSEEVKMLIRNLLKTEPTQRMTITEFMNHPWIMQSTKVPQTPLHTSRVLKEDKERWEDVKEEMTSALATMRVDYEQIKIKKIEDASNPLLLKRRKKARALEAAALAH
Sequence of Tyrosine-protein kinase JAK2 (Homo sapiens) (O60674 whole entry): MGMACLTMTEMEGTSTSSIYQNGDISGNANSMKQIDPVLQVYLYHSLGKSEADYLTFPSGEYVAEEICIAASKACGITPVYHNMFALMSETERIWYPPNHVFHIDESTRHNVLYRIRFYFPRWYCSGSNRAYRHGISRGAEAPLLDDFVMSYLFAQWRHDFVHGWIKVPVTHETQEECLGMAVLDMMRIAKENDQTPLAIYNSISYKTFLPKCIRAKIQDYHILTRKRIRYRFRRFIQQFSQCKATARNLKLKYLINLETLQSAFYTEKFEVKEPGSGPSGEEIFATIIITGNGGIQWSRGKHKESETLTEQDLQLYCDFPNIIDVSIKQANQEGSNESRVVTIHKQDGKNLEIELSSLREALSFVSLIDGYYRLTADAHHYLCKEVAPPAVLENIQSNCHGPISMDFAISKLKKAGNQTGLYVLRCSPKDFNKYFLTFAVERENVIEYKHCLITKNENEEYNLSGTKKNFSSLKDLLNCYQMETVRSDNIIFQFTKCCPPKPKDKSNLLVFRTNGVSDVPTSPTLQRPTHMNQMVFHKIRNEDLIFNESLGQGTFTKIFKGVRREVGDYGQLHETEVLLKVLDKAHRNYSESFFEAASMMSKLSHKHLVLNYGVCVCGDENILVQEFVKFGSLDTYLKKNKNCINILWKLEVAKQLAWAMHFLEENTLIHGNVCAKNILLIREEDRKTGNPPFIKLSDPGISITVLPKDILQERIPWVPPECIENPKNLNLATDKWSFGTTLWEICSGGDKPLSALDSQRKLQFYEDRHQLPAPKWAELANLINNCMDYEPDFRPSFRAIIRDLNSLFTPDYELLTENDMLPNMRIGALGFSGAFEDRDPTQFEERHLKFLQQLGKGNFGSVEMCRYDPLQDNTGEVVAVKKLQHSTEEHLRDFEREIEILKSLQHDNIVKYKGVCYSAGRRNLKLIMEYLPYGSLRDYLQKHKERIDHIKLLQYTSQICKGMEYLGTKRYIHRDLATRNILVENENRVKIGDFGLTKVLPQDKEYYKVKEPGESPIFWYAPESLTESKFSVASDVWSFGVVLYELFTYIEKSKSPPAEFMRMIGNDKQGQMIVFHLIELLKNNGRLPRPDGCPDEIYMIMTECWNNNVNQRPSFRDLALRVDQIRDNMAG
Sequence of Mitogen-activated protein kinase 10 (Homo sapiens) (P53779 whole entry): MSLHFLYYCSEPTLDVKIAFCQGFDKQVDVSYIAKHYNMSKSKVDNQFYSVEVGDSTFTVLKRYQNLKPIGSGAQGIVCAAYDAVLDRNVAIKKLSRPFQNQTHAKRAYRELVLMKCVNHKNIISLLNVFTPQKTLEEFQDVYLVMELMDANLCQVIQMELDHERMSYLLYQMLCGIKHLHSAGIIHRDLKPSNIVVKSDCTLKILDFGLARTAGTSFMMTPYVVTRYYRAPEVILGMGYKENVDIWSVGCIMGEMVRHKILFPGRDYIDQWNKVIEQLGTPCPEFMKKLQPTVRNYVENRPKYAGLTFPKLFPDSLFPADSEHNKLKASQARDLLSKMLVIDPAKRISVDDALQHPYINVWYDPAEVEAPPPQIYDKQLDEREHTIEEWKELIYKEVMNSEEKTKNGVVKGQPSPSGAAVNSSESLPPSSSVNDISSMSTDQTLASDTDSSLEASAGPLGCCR
Sequence of Serine/threonine-protein kinase 3 (Homo sapiens) (Q13188 whole entry): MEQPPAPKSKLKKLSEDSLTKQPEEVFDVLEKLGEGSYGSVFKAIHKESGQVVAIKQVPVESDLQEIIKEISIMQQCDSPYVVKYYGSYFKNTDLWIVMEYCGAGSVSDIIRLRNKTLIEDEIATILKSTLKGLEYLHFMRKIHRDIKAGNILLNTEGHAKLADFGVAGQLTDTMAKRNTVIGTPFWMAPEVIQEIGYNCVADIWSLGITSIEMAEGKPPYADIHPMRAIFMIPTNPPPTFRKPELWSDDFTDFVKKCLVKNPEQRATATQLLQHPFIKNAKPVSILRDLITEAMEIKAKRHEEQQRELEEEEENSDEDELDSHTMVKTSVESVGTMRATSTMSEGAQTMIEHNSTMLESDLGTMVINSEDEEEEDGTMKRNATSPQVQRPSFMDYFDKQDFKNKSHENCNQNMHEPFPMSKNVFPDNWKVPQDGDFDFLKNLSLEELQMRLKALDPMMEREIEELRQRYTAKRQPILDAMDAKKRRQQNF
Sequence of Tyrosine-protein kinase Yes (Homo sapiens) (P07947 2-543 limits assumed): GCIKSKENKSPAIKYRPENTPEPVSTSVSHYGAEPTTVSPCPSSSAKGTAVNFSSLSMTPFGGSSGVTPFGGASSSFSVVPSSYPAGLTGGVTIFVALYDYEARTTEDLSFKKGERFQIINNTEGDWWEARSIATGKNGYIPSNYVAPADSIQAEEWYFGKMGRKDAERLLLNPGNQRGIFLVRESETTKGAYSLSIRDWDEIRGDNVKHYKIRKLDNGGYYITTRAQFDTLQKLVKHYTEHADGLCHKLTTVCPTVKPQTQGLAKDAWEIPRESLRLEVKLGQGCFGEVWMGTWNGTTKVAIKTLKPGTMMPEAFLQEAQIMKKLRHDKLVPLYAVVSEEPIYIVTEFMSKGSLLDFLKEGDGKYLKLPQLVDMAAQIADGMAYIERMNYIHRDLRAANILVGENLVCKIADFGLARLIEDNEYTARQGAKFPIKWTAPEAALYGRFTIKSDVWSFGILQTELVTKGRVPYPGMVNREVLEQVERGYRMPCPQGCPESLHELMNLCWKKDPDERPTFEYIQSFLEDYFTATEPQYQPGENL
Sequence of Ribosomal protein S6 kinase alpha-3 (Homo sapiens) (P51812 whole entry): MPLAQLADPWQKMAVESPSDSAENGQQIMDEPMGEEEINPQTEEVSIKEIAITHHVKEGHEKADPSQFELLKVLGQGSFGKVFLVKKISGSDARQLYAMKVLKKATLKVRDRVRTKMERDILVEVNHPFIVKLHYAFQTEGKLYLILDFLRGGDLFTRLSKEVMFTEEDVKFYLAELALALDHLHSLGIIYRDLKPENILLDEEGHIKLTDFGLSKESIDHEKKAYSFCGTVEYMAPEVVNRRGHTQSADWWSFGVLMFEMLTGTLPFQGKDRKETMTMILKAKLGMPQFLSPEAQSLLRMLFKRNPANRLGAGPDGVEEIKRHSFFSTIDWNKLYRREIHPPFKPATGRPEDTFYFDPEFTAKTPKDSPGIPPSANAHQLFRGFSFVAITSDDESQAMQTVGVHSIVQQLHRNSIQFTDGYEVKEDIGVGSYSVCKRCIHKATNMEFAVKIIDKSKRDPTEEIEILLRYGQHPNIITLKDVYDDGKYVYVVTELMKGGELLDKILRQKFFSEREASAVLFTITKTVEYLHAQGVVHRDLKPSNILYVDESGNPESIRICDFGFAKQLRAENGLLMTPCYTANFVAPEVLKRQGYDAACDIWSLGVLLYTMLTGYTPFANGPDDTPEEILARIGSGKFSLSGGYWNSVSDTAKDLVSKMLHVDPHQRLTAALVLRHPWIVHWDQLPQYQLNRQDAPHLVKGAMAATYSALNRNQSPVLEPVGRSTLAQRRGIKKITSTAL
Sequence of Dual specificity protein kinase CLK2 (Homo sapiens) (P49760 whole entry, looked up): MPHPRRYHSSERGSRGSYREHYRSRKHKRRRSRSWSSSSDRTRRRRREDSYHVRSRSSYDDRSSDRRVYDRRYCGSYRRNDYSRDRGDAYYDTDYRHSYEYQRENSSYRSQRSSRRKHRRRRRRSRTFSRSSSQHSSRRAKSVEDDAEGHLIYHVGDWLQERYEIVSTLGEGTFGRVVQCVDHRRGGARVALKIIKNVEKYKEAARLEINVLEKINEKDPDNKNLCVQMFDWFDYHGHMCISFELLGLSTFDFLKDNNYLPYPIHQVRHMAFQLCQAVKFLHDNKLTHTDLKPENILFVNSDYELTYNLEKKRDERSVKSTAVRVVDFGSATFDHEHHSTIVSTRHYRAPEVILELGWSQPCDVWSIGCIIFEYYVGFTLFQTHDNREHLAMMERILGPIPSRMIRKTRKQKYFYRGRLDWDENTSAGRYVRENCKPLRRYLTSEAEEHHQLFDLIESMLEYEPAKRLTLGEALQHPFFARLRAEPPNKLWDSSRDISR
Sequence of Serine/threonine-protein kinase PLK1 (Homo sapiens) (P53350 whole entry): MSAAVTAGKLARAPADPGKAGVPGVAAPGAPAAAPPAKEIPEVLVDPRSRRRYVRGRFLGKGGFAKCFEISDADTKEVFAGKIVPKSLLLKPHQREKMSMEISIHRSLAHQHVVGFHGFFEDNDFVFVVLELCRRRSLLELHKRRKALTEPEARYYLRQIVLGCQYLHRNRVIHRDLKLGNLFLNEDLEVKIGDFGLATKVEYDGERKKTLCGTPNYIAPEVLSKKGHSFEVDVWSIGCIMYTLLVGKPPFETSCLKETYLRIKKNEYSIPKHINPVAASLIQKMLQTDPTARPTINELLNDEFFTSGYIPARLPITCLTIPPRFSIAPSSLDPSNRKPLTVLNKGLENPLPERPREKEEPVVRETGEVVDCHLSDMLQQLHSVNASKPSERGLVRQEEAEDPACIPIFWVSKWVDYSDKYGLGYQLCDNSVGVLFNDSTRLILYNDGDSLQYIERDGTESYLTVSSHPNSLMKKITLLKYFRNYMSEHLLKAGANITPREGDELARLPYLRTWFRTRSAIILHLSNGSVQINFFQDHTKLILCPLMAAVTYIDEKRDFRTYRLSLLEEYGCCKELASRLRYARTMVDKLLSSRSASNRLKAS

In the case of `Cc1ccc(F)cc1-c1nc2[nH]nc(N)c2c2c1CCCC2`, the Activity [1] is reported as 54%, the Activity [2] is reported as 25% and the Activity [3] is reported as 91%. For the same compound, the Activity [4] was 92%, the Activity [5] was 76% and the Activity [6] was 100%. For the same compound, the Activity [7] was 93%, the Activity [8] was 89% and the Activity [9] was 90%. It also gave an Activity [10] of 82%, an Activity [11] of 96% and an Activity [12] of 65%. It also gave an Activity [13] of 99%, an Activity [14] of 45% and an Activity [15] of 81%. It also gave an Activity [16] of 76%, an Activity [17] of 18% and an Activity [18] of 86%. For the same compound, the Activity [19] was 30%, the Activity [20] was 45% and the Activity [21] was 55%. The Activity [22] was 56%, the Activity [23] was 83% and the Activity [24] was 55%. The Activity [25] was 74%, the Activity [26] was 72% and the Activity [27] was 89%. The Activity [28] was 78%, the Activity [29] was 65% and the Activity [30] was 78%. It also gave an Activity [31] of 66%, an Activity [32] of 91% and an Activity [33] of 71%.
